In patent US20240287042A1, “NOVEL COMPOUND HAVING INHIBITORY ACTIVITY AGAINST PENDRIN, AND PHARMACEUTICAL USES THEREOF” (UIF (University Industry Foundation), Yonsei University, priority 2021, published 2024):

Target: T1, human WT SLC26A9 (Homo sapiens, UniProt Q7LBE3)
T1 construct: expressed in transfected cells
T1 sequence (Q7LBE3 1-791): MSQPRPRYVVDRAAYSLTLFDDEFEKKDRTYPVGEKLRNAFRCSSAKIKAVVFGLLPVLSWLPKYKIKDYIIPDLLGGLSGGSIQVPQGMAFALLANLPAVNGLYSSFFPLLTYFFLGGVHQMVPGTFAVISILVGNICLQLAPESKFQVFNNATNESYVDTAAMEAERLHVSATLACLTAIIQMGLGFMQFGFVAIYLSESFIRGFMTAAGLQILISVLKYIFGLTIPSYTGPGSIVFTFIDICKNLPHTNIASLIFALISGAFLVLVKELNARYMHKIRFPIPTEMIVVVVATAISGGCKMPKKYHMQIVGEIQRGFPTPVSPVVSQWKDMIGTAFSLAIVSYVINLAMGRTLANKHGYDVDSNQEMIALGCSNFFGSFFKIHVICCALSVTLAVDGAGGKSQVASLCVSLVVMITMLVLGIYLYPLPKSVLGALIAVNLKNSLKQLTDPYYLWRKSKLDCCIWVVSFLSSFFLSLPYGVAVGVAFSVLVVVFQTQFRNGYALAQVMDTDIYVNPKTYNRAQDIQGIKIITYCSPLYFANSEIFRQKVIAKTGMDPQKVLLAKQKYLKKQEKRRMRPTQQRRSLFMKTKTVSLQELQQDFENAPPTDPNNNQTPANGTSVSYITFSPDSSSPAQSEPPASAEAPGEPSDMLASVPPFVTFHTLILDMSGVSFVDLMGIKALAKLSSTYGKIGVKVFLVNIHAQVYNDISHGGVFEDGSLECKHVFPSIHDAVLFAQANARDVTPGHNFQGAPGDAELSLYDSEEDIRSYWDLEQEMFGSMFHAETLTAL
Assay: SLC26A9 Cl−/I− exchange activity, YFP fluorescence in LN-215 cells
Type: cell-based
Settings: 100 μM, FIG. 3
Protocol: Chinese hamster ovary (CHO)-K1 cells or LN-215 cells were cultured in DMEM medium containing 10% fetal bovine serum (FBS), 100 units/ml of penicillin and 100 μg/ml streptomycin. CHO-K1 cells or LN-215 cells were stably transfected with pcDNA3.1 encoding the halide sensor YFP-H148Q/I152L/F46L and human wild-type (WT)-SLC26A9. Fisher rat thyroid (FRT) cells stably transfected with YFP-H148Q/I152L/F46L and human wild type (WT)-CFTR or human wild type (WT)-ANO1 were cultured in DMEM/F-12 medium containing 10% fetal bovine serum (FBS), 100 units/ml of penicillin, and 100 μg/ml of streptomycin.
LN-215 cells expressing human WT SLC26A9 and YFP-F46L/H148Q/I152L, and FRT cells expressing human WT CFTR or ANO1 and YFP-F46L/H148Q/I152L were plated in 96-well microplates at a density of 2×10^4 cells per well, and cultured for 48 hours. […] After culturing at 37° C. for 10 minutes, the 96-well plate was located on the FLUOstar Omega Microplate Reader (BMG Labtech, Ortenberg, Germany) for a fluorescence assay. For assay of the activity of […], fluorescence was recorded continuously (400 ms per point) for 1 second (baseline), whereby each well was assayed individually for SLC26A9-mediated I-influx. Then, 50 μL of NaI-substituted HEPES buffered solution (replacing NaCl with NaI) was added using a liquid injector at 1 second, and YFP fluorescence was recorded for 6 seconds. […]

Effect on activity of SLC26A9	SMILES
did not inhibit	Cc1ccc(C)c(N2CCN(C(=O)Cc3c(C(=O)O)[nH]c4ccc(Cl)cc34)CC2)c1 [YPI-H05, 5-chloro-3-(2-(4-(2,5-dimethylphenyl)piperazin-1-yl-)-2-oxoethyl)-1H-indole-2-carboxylic acid]
did not inhibit	Cc1ccc2[nH]c(C(=O)O)c(CC(=O)N3CCN(c4c(C)cccc4Cl)CC3)c2c1 [YPI-A4948, 3-(2-(4-(2-Chloro-6-methylphenyl)piperazin-1-yl)-2-oxoethyl)-5-methyl-1H-indole-2-carboxylic acid]
